# Assay results from US6914045B2, “Glycopeptide antibiotics” (Wyeth Holdings Corporation, priority 2001, dated 2005).
# What was measured:
# Assay in all cases: in vitro antibacterial evaluation, MIC by broth dilution
# Assay type in all cases: cell-based
# Enterococcus sp. = conditions: broth dilution, 18 hours at 35° C.
# Procedure: (§1) Methods for in vitro Antibacterial Evaluation (Table 1)
# (§2) The minimum inhibitory concentration (MIC), the lowest concentration of the antibiotic which inhibits growth of the test organism, is determined by the broth dilution method using Muller-Hinton II […] (Baltimore Biological Laboratories) following the recommendations of the National Committee for Clinical Laboratory Standards [Methods for dilution antimicrobial susceptibility tests for bacteria that grow aerobically, approved standard M7-A2, National Committee for Clinical Laboratory Standards, Villanova, Pa.].
# (§3) An inoculum level of 5×10^5 CFU/mL, and a range of antibiotic concentrations (64-0.06 μg/mL) is used. […] The test organisms include a spectrum of Gram-positive bacteria comprised of Staphylococcus sp., Streptococcus sp. and Enterococcus sp. These organisms include recent clinical isolates that are resistant to methicillin, penicillin and/or vancomycin.
# Staphylococcus sp. = conditions: broth dilution, 18 hours at 35° C.; for MIC Staphylococcus aureus (ATCC 29213): strain ATCC 29213; for MIC Staphylococcus aureus (GC 1131): strain GC 1131; for MIC Staphylococcus aureus (GC 3051): strain GC 3051; for MIC Staphylococcus aureus (GC 3053): strain GC 3053; for MIC Staphylococcus aureus (GC 4541): strain GC 4541; for MIC Staphylococcus aureus (GC 4542): strain GC 4542; for MIC Staphylococcus aureus-SMITH (GC 4543): strain GC 4543; for MIC Staphylococcus aureus (GC 4544): strain GC 4544; for MIC Staphylococcus aureus (GC 4545): strain GC 4545; for MIC Staphylococcus haemolyticus (GC 4546): strain GC 4546; for MIC Coagulase Negative Staphylococcus (GC 4547): strain GC 4547; for MIC Coagulase Negative Staphylococcus (GC 4548): strain GC 4548; for MIC Coagulase Negative Staphylococcus (GC 4549): strain GC 4549; for MIC Coagulase Negative Staphylococcus (GC 4551): strain GC 4551
# Procedure: as §1, §2, §3
# Streptococcus sp. = conditions: broth dilution, 18 hours at 35° C.
# Procedure: as §1, §2, §3
# Escherichia coli = conditions: 18 hours at 35° C.
# In short: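 MIC is the lowest antibiotic concentration (tested 64-0.06 μg/mL) preventing growth of a 5×10^5 CFU/mL inoculum. Determined by broth dilution in Mueller-Hinton II medium following NCCLS standard M7-A2.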
smiles,measurement,setting,value
CC(C)=CCCC(C)=CCN=C1NCC(C(O)C2NC(=O)C(C(O)C3CNC(=N)N3)NC(=O)C(Cc3ccc(OC4OC(CO)C(OC5OC6COC7(OC6C(O)C5O)C5CC6CC(C5)CC7C6)C(O)C4O)cc3)NC(=O)C(C(C)c3ccccc3)NC(=O)CNC(=O)C(CO)NC2=O)N1C1OC(CO)C(O)C(O)C1O (stereo not drawn) [Example 82],MIC Enterococcus avium (GC 4558),Enterococcus sp.; Enterococcus avium (GC 4558),4 µg/mL
same,MIC Enterococcus faecalis (ATCC 29212),Enterococcus sp.; Enterococcus faecalis (ATCC 29212),16 µg/mL
same,MIC Enterococcus faecalis (GC 4552),Enterococcus sp.; Enterococcus faecalis (GC 4552),16 µg/mL
same,MIC Enterococcus faecalis (GC 4553),Enterococcus sp.; Enterococcus faecalis (GC 4553),8 µg/mL
same,MIC Enterococcus faecalis (GC 4554),Enterococcus sp.; Enterococcus faecalis (GC 4554),32 µg/mL
same,MIC Enterococcus faecalis (GC 6189),Enterococcus sp.; Enterococcus faecalis (GC 6189),16 µg/mL
same,MIC Enterococcus faecium (GC 2243),Enterococcus sp.; Enterococcus faecium (GC 2243),8 µg/mL
same,MIC Enterococcus faecium (GC 4556),Enterococcus sp.; Enterococcus faecium (GC 4556),16 µg/mL
same,MIC Enterococcus faecium (GC 4557),Enterococcus sp.; Enterococcus faecium (GC 4557),2 µg/mL
same,MIC Enterococcus avium (GC 4558),Enterococcus sp.,4 µg/mL
same,MIC Enterococcus faecalis (ATCC 29212),Enterococcus sp.,16 µg/mL
same,MIC Enterococcus faecalis (GC 2242),Enterococcus sp.,16 µg/mL
same,MIC Enterococcus faecalis (GC 2691),Enterococcus sp.,16 µg/mL
same,MIC Enterococcus faecalis (GC 3059),Enterococcus sp.,16 µg/mL
same,MIC Enterococcus faecalis (GC 4552),Enterococcus sp.,16 µg/mL
same,MIC Enterococcus faecalis (GC 4553),Enterococcus sp.,8 µg/mL
same,MIC Enterococcus faecalis (GC 4554),Enterococcus sp.,32 µg/mL
same,MIC Enterococcus faecalis (GC 6189),Enterococcus sp.,16 µg/mL
same,MIC Enterococcus faecium (GC 2243),Enterococcus sp.,8 µg/mL
same,MIC Enterococcus faecium (GC 4556),Enterococcus sp.,16 µg/mL
same,MIC Enterococcus faecium (GC 4557),Enterococcus sp.,2 µg/mL
same,MIC Enterococcus faecalis (GC 2242),Enterococcus sp.; strain GC 2242,16 µg/mL
same,MIC Enterococcus faecalis (GC 2691),Enterococcus sp.; strain GC 2691,16 µg/mL
same,MIC Enterococcus faecalis (GC 3059),Enterococcus sp.; strain GC 3059,16 µg/mL
same,MIC Staphylococcus aureus (ATCC 29213),Staphylococcus sp.,8 µg/mL
same,MIC Staphylococcus aureus (GC 1131),Staphylococcus sp.,16 µg/mL
same,MIC Staphylococcus aureus (GC 3051),Staphylococcus sp.,8 µg/mL
same,MIC Staphylococcus aureus (GC 3053),Staphylococcus sp.,16 µg/mL
same,MIC Staphylococcus aureus (GC 4541),Staphylococcus sp.,8 µg/mL
same,MIC Staphylococcus aureus (GC 4542),Staphylococcus sp.,16 µg/mL
same,MIC Staphylococcus aureus-SMITH (GC 4543),Staphylococcus sp.,8 µg/mL
same,MIC Staphylococcus aureus (GC 4544),Staphylococcus sp.,16 µg/mL
same,MIC Staphylococcus aureus (GC 4545),Staphylococcus sp.,8 µg/mL
same,MIC Staphylococcus haemolyticus (GC 4546),Staphylococcus sp.,4 µg/mL
same,MIC Coagulase Negative Staphylococcus (GC 4547),Staphylococcus sp.,4 µg/mL
same,MIC Coagulase Negative Staphylococcus (GC 4548),Staphylococcus sp.,4 µg/mL
same,MIC Coagulase Negative Staphylococcus (GC 4549),Staphylococcus sp.,4 µg/mL
same,MIC Coagulase Negative Staphylococcus (GC 4551),Staphylococcus sp.,8 µg/mL
same,MIC Streptococcus agalactiae (GC 4564),Streptococcus sp.,0.5 µg/mL
same,MIC Streptococcus pneumoniae (ATCC 6301),Streptococcus sp.,2 µg/mL
same,MIC Streptococcus pneumoniae (GC 1894),Streptococcus sp.,0.25 µg/mL
same,MIC Streptococcus pneumoniae (GC 4565),Streptococcus sp.,2 µg/mL
same,MIC Streptococcus pyogenes (GC 4563),Streptococcus sp.,1 µg/mL
same,MIC Streptococcus pneumoniae (ATCC 6301),Streptococcus sp.; strain ATCC 6301,2 µg/mL
same,MIC Streptococcus pneumoniae (GC 1894),Streptococcus sp.; strain GC 1894,0.25 µg/mL
same,MIC Streptococcus pyogenes (GC 4563),Streptococcus sp.; strain GC 4563,1 µg/mL
same,MIC Streptococcus agalactiae (GC 4564),Streptococcus sp.; strain GC 4564,0.5 µg/mL
same,MIC Streptococcus pneumoniae (GC 4565),Streptococcus sp.; strain GC 4565,2 µg/mL
same,MIC Escherichia coli (ATCC 25922),Escherichia coli,>128 µg/mL
same,MIC Escherichia coli (GC 4559),Escherichia coli,>128 µg/mL
same,MIC Escherichia coli (GC 4560),Escherichia coli,4 µg/mL
"N=C1NCC(C(O)C2NC(=O)C(CC3CCC(OC4OC(CO)C(OC5OC6COC7(OC6C(O)C5O)C5CC6CC(C5)CC7C6)C(O)C4O)CC3)NC(=O)C(CC3CCCCC3)NC(=O)CNC(=O)C(CO)NC(=O)C(C(O)C3CNC(=N)N3C3OC(CO)C(O)C(O)C3O)NC2=O)N1 (single isomer, unassigned) [Example 222]",MIC Enterococcus avium (GC 4558),Enterococcus sp.,64 µg/mL
same,MIC Enterococcus faecalis (ATCC 29212),Enterococcus sp.,>64 µg/mL
same,MIC Enterococcus faecalis (GC 2242),Enterococcus sp.,>64 µg/mL
same,MIC Enterococcus faecalis (GC 2691),Enterococcus sp.,>64 µg/mL
same,MIC Enterococcus faecalis (GC 3059),Enterococcus sp.,>64 µg/mL
same,MIC Enterococcus faecalis (GC 4552),Enterococcus sp.,>64 µg/mL
same,MIC Enterococcus faecalis (GC 4553),Enterococcus sp.,>64 µg/mL
same,MIC Enterococcus faecalis (GC 4554),Enterococcus sp.,>64 µg/mL
same,MIC Enterococcus faecalis (GC 6189),Enterococcus sp.,>64 µg/mL
same,MIC Enterococcus faecium (GC 2243),Enterococcus sp.,>64 µg/mL
same,MIC Enterococcus faecium (GC 4556),Enterococcus sp.,>64 µg/mL
same,MIC Enterococcus faecium (GC 4557),Enterococcus sp.,64 µg/mL
same,MIC Enterococcus faecalis (ATCC 29212),"Enterococcus sp.; inoculum 5×10^5 CFU/mL, strain ATCC 29212",>64 µg/mL
same,MIC Enterococcus faecalis (GC 2242),"Enterococcus sp.; inoculum 5×10^5 CFU/mL, strain GC 2242",>64 µg/mL
same,MIC Enterococcus faecium (GC 2243),"Enterococcus sp.; inoculum 5×10^5 CFU/mL, strain GC 2243",>64 µg/mL
same,MIC Enterococcus faecalis (GC 2691),"Enterococcus sp.; inoculum 5×10^5 CFU/mL, strain GC 2691",>64 µg/mL
same,MIC Enterococcus faecalis (GC 3059),"Enterococcus sp.; inoculum 5×10^5 CFU/mL, strain GC 3059",>64 µg/mL
same,MIC Enterococcus faecalis (GC 4552),"Enterococcus sp.; inoculum 5×10^5 CFU/mL, strain GC 4552",>64 µg/mL
same,MIC Enterococcus faecalis (GC 4553),"Enterococcus sp.; inoculum 5×10^5 CFU/mL, strain GC 4553",>64 µg/mL
same,MIC Enterococcus faecalis (GC 4554),"Enterococcus sp.; inoculum 5×10^5 CFU/mL, strain GC 4554",>64 µg/mL
same,MIC Enterococcus faecium (GC 4556),"Enterococcus sp.; inoculum 5×10^5 CFU/mL, strain GC 4556",>64 µg/mL
same,MIC Enterococcus faecium (GC 4557),"Enterococcus sp.; inoculum 5×10^5 CFU/mL, strain GC 4557",64 µg/mL
same,MIC Enterococcus avium (GC 4558),"Enterococcus sp.; inoculum 5×10^5 CFU/mL, strain GC 4558",64 µg/mL
same,MIC Enterococcus faecalis (GC 6189),"Enterococcus sp.; inoculum 5×10^5 CFU/mL, strain GC 6189",>64 µg/mL
same,MIC Staphylococcus aureus (ATCC 29213),Staphylococcus sp.,>64 µg/mL
same,MIC Staphylococcus aureus (GC 1131),Staphylococcus sp.,>64 µg/mL
same,MIC Staphylococcus aureus (GC 3051),Staphylococcus sp.,>64 µg/mL
same,MIC Staphylococcus aureus (GC 3053),Staphylococcus sp.,>64 µg/mL
same,MIC Staphylococcus aureus (GC 4541),Staphylococcus sp.,>64 µg/mL
same,MIC Staphylococcus aureus (GC 4542),Staphylococcus sp.,>64 µg/mL
same,MIC Staphylococcus aureus-SMITH (GC 4543),Staphylococcus sp.,>64 µg/mL
same,MIC Staphylococcus aureus (GC 4544),Staphylococcus sp.,>64 µg/mL
same,MIC Staphylococcus aureus (GC 4545),Staphylococcus sp.,>64 µg/mL
same,MIC Staphylococcus haemolyticus (GC 4546),Staphylococcus sp.,>64 µg/mL
same,MIC Coagulase Negative Staphylococcus (GC 4547),Staphylococcus sp.,>64 µg/mL
same,MIC Coagulase Negative Staphylococcus (GC 4548),Staphylococcus sp.,>64 µg/mL
same,MIC Coagulase Negative Staphylococcus (GC 4549),Staphylococcus sp.,>64 µg/mL
same,MIC Coagulase Negative Staphylococcus (GC 4551),Staphylococcus sp.,>64 µg/mL
same,MIC Streptococcus agalactiae (GC 4564),Streptococcus sp.,>64 µg/mL
same,MIC Streptococcus pneumoniae (ATCC 6301),Streptococcus sp.,64 µg/mL
same,MIC Streptococcus pneumoniae (GC 1894),Streptococcus sp.,32 µg/mL
same,MIC Streptococcus pneumoniae (GC 4565),Streptococcus sp.,64 µg/mL
same,MIC Streptococcus pyogenes (GC 4563),Streptococcus sp.,64 µg/mL
same,MIC Streptococcus pneumoniae (ATCC 6301),"Streptococcus sp.; inoculum 5×10^5 CFU/mL, strain ATCC 6301",64 µg/mL
same,MIC Streptococcus pneumoniae (GC 1894),"Streptococcus sp.; inoculum 5×10^5 CFU/mL, strain GC 1894",32 µg/mL
same,MIC Streptococcus pyogenes (GC 4563),"Streptococcus sp.; inoculum 5×10^5 CFU/mL, strain GC 4563",64 µg/mL
same,MIC Streptococcus agalactiae (GC 4564),"Streptococcus sp.; inoculum 5×10^5 CFU/mL, strain GC 4564",>64 µg/mL
same,MIC Streptococcus pneumoniae (GC 4565),"Streptococcus sp.; inoculum 5×10^5 CFU/mL, strain GC 4565",64 µg/mL
same,MIC Escherichia coli (ATCC 25922),Escherichia coli,>64 µg/mL
same,MIC Escherichia coli (GC 4559),Escherichia coli,>64 µg/mL
same,MIC Escherichia coli (GC 4560),Escherichia coli,64 µg/mL
